In patent USRE50050E1, “Pyrimidinedione compounds” (MyoKardia, Inc., priority 2013, dated 2024):
pIC50: −log10 of the molar value.

Each compound was assayed against T1, bovine cardiac myosin (Bos taurus, UniProt Q9BE39) (assay: Myosin inhibition assay (PK/LDH-coupled ATPase, bovine cardiac myofibrils)). Conditions: bovine cardiac myofibrils, calcium giving 50% activation (pCa50); read-out: Biochemical Activity (pCa50).
T1 construct: The source of cardiac myosin was from bovine heart in the form of skinned myofibrils; from tissue; host or cells: bovine heart, skinned myofibrils
T1 sequence (Q9BE39 whole entry): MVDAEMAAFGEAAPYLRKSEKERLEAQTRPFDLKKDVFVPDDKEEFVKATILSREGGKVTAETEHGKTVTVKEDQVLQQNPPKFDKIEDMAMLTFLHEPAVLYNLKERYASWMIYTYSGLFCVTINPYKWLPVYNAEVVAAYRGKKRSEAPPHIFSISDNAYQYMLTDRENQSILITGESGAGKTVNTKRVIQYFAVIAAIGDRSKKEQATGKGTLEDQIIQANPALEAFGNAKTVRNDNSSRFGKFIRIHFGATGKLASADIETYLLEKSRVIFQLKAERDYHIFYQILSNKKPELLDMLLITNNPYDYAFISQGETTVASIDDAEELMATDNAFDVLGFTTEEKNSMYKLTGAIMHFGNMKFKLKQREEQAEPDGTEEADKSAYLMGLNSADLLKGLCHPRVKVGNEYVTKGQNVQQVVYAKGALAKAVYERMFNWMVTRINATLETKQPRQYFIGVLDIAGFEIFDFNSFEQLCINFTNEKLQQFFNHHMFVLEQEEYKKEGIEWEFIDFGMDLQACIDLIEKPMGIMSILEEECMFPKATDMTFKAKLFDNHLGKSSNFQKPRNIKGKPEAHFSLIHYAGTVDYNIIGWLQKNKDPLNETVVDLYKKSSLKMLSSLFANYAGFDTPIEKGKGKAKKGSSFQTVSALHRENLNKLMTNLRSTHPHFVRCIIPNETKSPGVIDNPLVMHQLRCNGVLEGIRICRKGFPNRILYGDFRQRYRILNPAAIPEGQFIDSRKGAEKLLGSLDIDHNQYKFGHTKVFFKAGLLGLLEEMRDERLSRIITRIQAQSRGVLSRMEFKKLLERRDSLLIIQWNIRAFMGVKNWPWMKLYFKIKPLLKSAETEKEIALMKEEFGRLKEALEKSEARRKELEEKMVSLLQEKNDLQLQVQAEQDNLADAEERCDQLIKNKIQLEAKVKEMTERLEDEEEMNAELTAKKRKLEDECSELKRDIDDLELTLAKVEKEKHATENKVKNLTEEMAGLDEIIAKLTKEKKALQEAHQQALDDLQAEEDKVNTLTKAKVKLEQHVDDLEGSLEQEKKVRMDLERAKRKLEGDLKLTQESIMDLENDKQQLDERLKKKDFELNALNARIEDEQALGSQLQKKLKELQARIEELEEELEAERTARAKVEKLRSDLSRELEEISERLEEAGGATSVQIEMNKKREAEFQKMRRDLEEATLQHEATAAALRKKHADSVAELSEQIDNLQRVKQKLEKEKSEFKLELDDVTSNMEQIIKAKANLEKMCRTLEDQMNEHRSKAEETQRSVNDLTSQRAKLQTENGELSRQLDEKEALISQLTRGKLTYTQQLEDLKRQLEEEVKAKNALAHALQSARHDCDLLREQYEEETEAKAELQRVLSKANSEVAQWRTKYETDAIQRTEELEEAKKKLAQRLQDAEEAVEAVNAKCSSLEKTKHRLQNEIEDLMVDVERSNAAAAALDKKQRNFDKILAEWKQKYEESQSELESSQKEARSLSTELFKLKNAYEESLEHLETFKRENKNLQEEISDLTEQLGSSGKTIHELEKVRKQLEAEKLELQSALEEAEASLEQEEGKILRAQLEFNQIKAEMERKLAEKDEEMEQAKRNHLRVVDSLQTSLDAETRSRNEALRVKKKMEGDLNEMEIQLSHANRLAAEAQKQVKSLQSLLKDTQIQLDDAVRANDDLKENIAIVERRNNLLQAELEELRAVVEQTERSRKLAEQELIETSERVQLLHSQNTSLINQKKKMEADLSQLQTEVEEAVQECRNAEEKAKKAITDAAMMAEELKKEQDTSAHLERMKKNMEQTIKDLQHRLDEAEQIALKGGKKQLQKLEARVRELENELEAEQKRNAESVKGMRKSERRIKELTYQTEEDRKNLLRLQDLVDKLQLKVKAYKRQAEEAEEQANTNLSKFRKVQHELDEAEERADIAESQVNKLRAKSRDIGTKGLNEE
T1 sequence (P85100 whole entry partner): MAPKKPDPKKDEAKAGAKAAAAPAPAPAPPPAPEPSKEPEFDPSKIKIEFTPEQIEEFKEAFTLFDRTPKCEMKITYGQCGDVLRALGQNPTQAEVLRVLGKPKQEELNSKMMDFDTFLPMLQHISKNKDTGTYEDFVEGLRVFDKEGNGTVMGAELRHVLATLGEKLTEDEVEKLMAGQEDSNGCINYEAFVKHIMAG
T1 sequence (Q3SZE5 whole entry partner): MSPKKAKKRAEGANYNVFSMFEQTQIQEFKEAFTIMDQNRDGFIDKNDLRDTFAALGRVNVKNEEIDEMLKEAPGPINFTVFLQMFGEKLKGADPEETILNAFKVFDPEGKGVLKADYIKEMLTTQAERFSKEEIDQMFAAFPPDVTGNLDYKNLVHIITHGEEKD
Assay type: biochemical
Procedure: Small molecule agents were assessed for their ability to inhibit the enzymatic activity of bovine cardiac myosin using a biochemical assay that couples the release of ADP (adenosine diphosphate) from cardiac myosin to an enzymatic coupling system consisting of pyruvate kinase and lactate dehydrogenase (PK/LDH) and monitoring the absorbance decrease of NADH (at 340 nm) as a function of time. PK converts ADP to ATP (adenosine triphosphate) by converting PEP (phosphoenolpyruvate) to pyruvate. Pyruvate is then converted to lactate by LDH by converting NADH (nicotinamide adenine dinucleotide) to NAD (oxidized nicotinamide adenine dinucleotide). The source of cardiac myosin was from bovine heart in the form of skinned myofibrils. Prior to testing small molecule agents, the bovine myofibrils were assessed for their calcium responsiveness and the calcium concentration that achieves either a 50% (pCa50) or 75% (pCa75) activation of the myofibril system was chosen as the final condition for assessing the inhibitory activity of the small molecule agents. All enzymatic activity was measured in a buffered solution containing 12 mM PIPES (piperazine-N,N′-bis(2-ethanesulfonic acid), 2 mM magnesium chloride at pH 6.8 (PM 12 buffer). Final assay conditions were 1 mg/mL of bovine cardiac myofibrils, 0.4 mM PK/LDH, 50 uM ATP, 0.1 mg/mL BSA (bovine serum albumin), 10 ppm antifoam, 1 mM DTT, 0.5 mM NADH, 1.5 mM PEP at the desired free calcium concentration required to achieve either 50% or 75% activation of the myofibrils.
A dilution series of compound was created in DMSO such that the final desired concentration of compound would be achieved in a volume of 100 μL with a fixed DMSO concentration of 2% (v/v). Typically 2 μL of the dilution series were added to 96 well plate to achieve an 8 or 12 point dose response. Following the addition of 50 μL of a solution containing bovine cardiac myofibrils, PK/LDH and a solution of calcium (that achieved the desired activation), the enzymatic reaction was started with the addition of 50 μL of a solution containing ATP, PEP and NADH. The reaction progress was followed in a Molecular Devices M5e plate reader at ambient temperature using clear half area plates. The plate reader was configured to read absorbance at 340 nm in kinetics mode for 15 minutes. Data were recorded as the slope of the absorbance response to time. The slopes of the absorbance response as a function of time were normalized to slopes on the plate containing DMSO. This normalized rate was then plotted as a function of small molecule concentration and the data was fitted to a four-parameter fit using GraphPad Prism. The midpoint of this plot is the 1050 and is the concentration at which fifty percent of the total response is inhibited.
C[C@H](Nc1cc(=O)n([C@H](C)CO)c(=O)[nH]1)c1ccccc1 [Compound 54, 3-((R)-1-hydroxypropan-2-yl)-6-(((S)-1-phenylethyl)amino)pyrimidine-2,4(1H,3H)-dione] showed a pIC50 of 4.82 to 6.00.
In the case of C[C@H](Nc1cc(=O)n(Cc2ccccc2)c(=O)[nH]1)c1ccccc1 [Compound 57, (S)-3-benzyl-6-((1-phenylethyl)amino)pyrimidine-2,4(1H,3H)-dione], the pIC50 was 4.82 to 6.00.
CC(C)n1c(=O)cc(N[C@@H](C)c2ccc(OCc3ccccc3)cc2)[nH]c1=O [Compound 62, (S)-6-((1-(4-(benzyloxy)phenyl)ethyl)amino)-3-isopropylpyrimidine-2,4(1H,3H)-dione] gave a pIC50 greater than 6.00.
For CC(C)n1c(=O)cc(N[C@@H](C)c2ccc(O)cc2)[nH]c1=O [Compound 63, (S)-6-((1-(4-hydroxyphenyl)ethyl)amino)-3-isopropylpyrimidine-2,4(1H,3H)-dione], the pIC50 was greater than 6.00.
Work on CC(C)n1c(=O)cc(N[C@@H](COCc2ccccc2)c2ccccc2)[nH]c1=O [Compound 64, (R)-6-((2-(benzyloxy)-1-phenylethyl)amino)-3-isopropylpyrimidine-2,4(1H,3H)-dione] yielded a pIC50 of 4.82 to 6.00.
Cc1cccc(-n2c(=O)cc(N[C@@H](C)c3ccccc3)[nH]c2=O)n1 [Compound 65, (S)-3-(6-methylpyridin-2-yl)-6-((1-phenylethyl)amino)pyrimidine-2,4(1H,3H)-dione] was tested, and the pIC50 was 4.82 to 6.00.
C[C@H](Nc1cc(=O)n(CC(F)F)c(=O)[nH]1)c1ccccc1 [Compound 66, (S)-3-(2,2-difluoroethyl)-6-((1-phenylethyl)amino)pyrimidine-2,4(1H,3H)-dione] showed a pIC50 of 4.82 to 6.00.
Cc1ccccc1[C@H](C)Nc1cc(=O)n(C(C)C)c(=O)[nH]1 [Compound 68, (S)-3-isopropyl-6-((1-(o-tolyl)ethyl)amino)pyrimidine-2,4(1H,3H)-dione] showed a pIC50 greater than 6.00.
Compound C[C@H](Nc1cc(=O)n(C2CCC(F)(F)CC2)c(=O)[nH]1)c1ccccc1 [Compound 82] has a pIC50 greater than 6.00.
C[C@H](Nc1cc(=O)n([C@@H](C)CO)c(=O)[nH]1)c1ccccc1 [Compound 92] was tested, and the pIC50 was 4.82 to 6.00.
Compound CC(C)n1c(=O)cc(N[C@@H](CO)c2ccccc2)[nH]c1=O [Compound 93] has a pIC50 of 4.82 to 6.00.
In the case of C[C@H](Nc1cc(=O)n([C@@H](C)C(F)(F)F)c(=O)[nH]1)c1ccccc1 [Compound 95], the pIC50 was greater than 6.00.
Work on C[C@H](Nc1cc(=O)n(C(C)(C)C)c(=O)[nH]1)c1ccccc1 [Compound 101] yielded a pIC50 of 4.82 to 6.00.
In the case of COCCn1c(=O)cc(N[C@@H](C)c2ccccc2)[nH]c1=O [Compound 102], the pIC50 was 4.82 to 6.00.
CC[C@H](Nc1cc(=O)n([C@@H](C)C(F)(F)F)c(=O)[nH]1)c1ccccc1 [Compound 103] gave a pIC50 greater than 6.00.
C[C@H](Nc1cc(=O)n([C@H](C)C2CC2)c(=O)[nH]1)c1ccccc1 [Compound 104] was tested, and the pIC50 was greater than 6.00.
Work on C[C@H](Nc1cc(=O)n([C@@H](C)C2CC2)c(=O)[nH]1)c1ccccc1 [Compound 105] yielded a pIC50 greater than 6.00.
CCn1c(=O)cc(N[C@H](c2ccccc2)C2CCC2)[nH]c1=O [Compound 106] showed a pIC50 greater than 6.00.
With CC(C)n1c(=O)cc(N[C@@H](C)c2ccc3c(c2)OCO3)[nH]c1=O [Compound 107] the pIC50 was greater than 6.00.
CCn1c(=O)cc(N[C@@H](C)c2ccc3c(c2)OCO3)[nH]c1=O [Compound 108] showed a pIC50 greater than 6.00.
Compound CC[C@H](Nc1cc(=O)n(CC(F)(F)F)c(=O)[nH]1)c1ccccc1 [Compound 109] has a pIC50 of 4.82 to 6.00.
With C[C@H](Nc1cc(=O)n(CC2CC2)c(=O)[nH]1)c1ccccc1 [Compound 110] the pIC50 was 4.82 to 6.00.
With O=c1cc(N[C@H](c2ccccc2)C2CC2)[nH]c(=O)n1CC(F)(F)F [Compound 111] the pIC50 was 4.82 to 6.00.
With O=c1cc(N[C@H](c2ccccc2)C2CCC2)[nH]c(=O)n1CC(F)(F)F [Compound 112] the pIC50 was greater than 6.00.
Compound C[C@H](Nc1cc(=O)n(C(CO)CO)c(=O)[nH]1)c1ccccc1 [Compound 113] has a pIC50 of 4.82 to 6.00.
C[C@H](n1c(=O)cc(N[C@@H](C)Cc2ccc(F)cc2)[nH]c1=O)C(F)(F)F [Compound 114] was tested, and the pIC50 was greater than 6.00.
CC(C)n1c(=O)cc(N[C@@H](C)c2ccccc2O)[nH]c1=O [Compound 116] gave a pIC50 greater than 6.00.
Work on C[C@H](Nc1cc(=O)n(C2(C(F)(F)F)CC2)c(=O)[nH]1)c1ccccc1 [Compound 117] yielded a pIC50 greater than 6.00.
For C[C@@H](Cc1ccc(F)cc1)Nc1cc(=O)n(-c2cc(F)cc(F)c2)c(=O)[nH]1 [Compound 118], the pIC50 was greater than 6.00.
With CC(C)n1c(=O)cc(N[C@@H](C)c2ccc3c(c2)OC(F)(F)O3)[nH]c1=O [Compound 119] the pIC50 was greater than 6.00.
CC(C)n1c(=O)cc(N[C@@H](C)c2ccccc2Cl)[nH]c1=O [Compound 120] was tested, and the pIC50 was greater than 6.00.
COc1ccc([C@H](C)Nc2cc(=O)n(C(C)C)c(=O)[nH]2)cc1 [Compound 121] showed a pIC50 greater than 6.00.
Work on CCn1c(=O)cc(N[C@H](c2ccccc2)C2CC2)[nH]c1=O [Compound 122] yielded a pIC50 of 4.82 to 6.00.
Compound CCn1c(=O)cc(N[C@@H](C)c2cccc(Cl)c2)[nH]c1=O [Compound 123] has a pIC50 greater than 6.00.
For CCn1c(=O)cc(N[C@@H](C)c2cccc(C(F)(F)F)c2)[nH]c1=O [Compound 124], the pIC50 was greater than 6.00.
In the case of C[C@H](Nc1cc(=O)n(CC2CC2)c(=O)[nH]1)c1cccc(F)c1 [Compound 125], the pIC50 was greater than 6.00.
C[C@H](Nc1cc(=O)n(CC2CC2)c(=O)[nH]1)c1cccc(C(F)(F)F)c1 [Compound 126] gave a pIC50 of 4.82 to 6.00.
For C[C@H](Nc1cc(=O)n(CC2CC2)c(=O)[nH]1)c1cccc(Cl)c1 [Compound 127], the pIC50 was greater than 6.00.
CC(C)n1c(=O)[nH]c(N[C@@H](C)c2ccc3c(c2)OC(F)(F)O3)c(Cl)c1=O [Compound 128] showed a pIC50 of 4.82 to 6.00.
CCCn1c(=O)cc(N[C@@H](C)c2cccc(F)c2)[nH]c1=O [Compound 129] was tested, and the pIC50 was 4.82 to 6.00.
CCCn1c(=O)cc(N[C@@H](C)c2cccc(Cl)c2)[nH]c1=O [Compound 130] gave a pIC50 greater than 6.00.
CCCn1c(=O)cc(N[C@@H](C)c2cccc(C(F)(F)F)c2)[nH]c1=O [Compound 131] gave a pIC50 greater than 6.00.
Compound C[C@H](Nc1cc(=O)n(C2CCC2)c(=O)[nH]1)c1ccc(F)cc1 [Compound 132] has a pIC50 greater than 6.00.

Same assay, conditions: bovine cardiac myofibrils, calcium giving 75% activation (pCa75); read-out: Biochemical Activity (pCa75)
For C[C@H](Nc1cc(=O)n([C@H](C)CO)c(=O)[nH]1)c1ccccc1 [Compound 54, 3-((R)-1-hydroxypropan-2-yl)-6-(((S)-1-phenylethyl)amino)pyrimidine-2,4(1H,3H)-dione], the pIC50 was 4.82 to 6.00.
CC(C)n1c(=O)cc(N[C@@H](C)c2cccc(C(F)(F)F)c2)[nH]c1=O [Compound 55, (S)-3-isopropyl-6-((1-(3-(trifluoromethyl)phenyl)ethyl)amino) pyrimidine-2,4(1H,3H)-dione] was tested, and the pIC50 was greater than 6.00.
Work on CC(C)n1c(=O)cc(N[C@@H](C)c2ccccc2C#N)[nH]c1=O [Compound 56, (S)-3-isopropyl-6-((1-(2-cyanophenyl)ethyl)amino)pyrimidine-2,4(1H,3H)-dione] yielded a pIC50 of less than 4.82.
C[C@H](Nc1cc(=O)n(-c2c(F)cccc2F)c(=O)[nH]1)c1ccccc1 [Compound 58, (S)-3-(2,6-difluorophenyl)-6-((1-phenylethyl)amino)pyrimidine-2,4(1H,3H)-dione] was tested, and the pIC50 was greater than 6.00.
Work on CC(C)n1c(=O)cc(N[C@@H](C)c2c(F)cccc2F)[nH]c1=O [Compound 59, (S)-6-((1-(2,6-difluorophenyl)ethyl)amino)-3-isopropylpyrimidine-2,4(1H,3H)-dione] yielded a pIC50 greater than 6.00.
For CC(C)n1c(=O)cc(N[C@@H](C)Cc2ccncc2)[nH]c1=O [Compound 61, (S)-3-isopropyl-6-((1-(pyridin-4-yl)propan-2-yl)amino)pyrimidine-2,4(1H,3H)-dione], the pIC50 was 4.82 to 6.00.
CC(C)n1c(=O)cc(N[C@@H](C)c2cccc(-n3ccnc3)c2)[nH]c1=O [Compound 72] was tested, and the pIC50 was 4.82 to 6.00.
In the case of C[C@H](Nc1cc(=O)n(-c2ccnnc2)c(=O)[nH]1)c1ccccc1 [Compound 73], the pIC50 was 4.82 to 6.00.
In the case of C[C@H](Nc1cc(=O)n(-c2cncnc2)c(=O)[nH]1)c1ccccc1 [Compound 74], the pIC50 was 4.82 to 6.00.
For C[C@H](Nc1cc(=O)n(-c2cnccn2)c(=O)[nH]1)c1ccccc1 [Compound 75], the pIC50 was 4.82 to 6.00.
With CC(C)n1c(=O)cc(N[C@@H](C)c2cccnc2)[nH]c1=O [Compound 76] the pIC50 was 4.82 to 6.00.
Compound C[C@H](Nc1cc(=O)n(-c2cnn(C)c2)c(=O)[nH]1)c1ccccc1 [Compound 77] has a pIC50 of 4.82 to 6.00.
CCC[C@H](Nc1cc(=O)n(C(C)C)c(=O)[nH]1)c1ccccc1 [Compound 78] was tested, and the pIC50 was greater than 6.00.
In the case of C[C@H](Nc1cc(=O)n([C@@H]2CCCOC2)c(=O)[nH]1)c1ccccc1 [Compound 79], the pIC50 was 4.82 to 6.00.
For C[C@H](Nc1cc(=O)n(C2CCCC2)c(=O)[nH]1)c1ccccc1 [Compound 80], the pIC50 was greater than 6.00.
Work on CC(C)[C@H](Nc1cc(=O)n(C(C)C)c(=O)[nH]1)c1ccccc1 [Compound 81] yielded a pIC50 of 4.82 to 6.00.
C[C@H](Nc1cc(=O)n(C2CCC(F)(F)CC2)c(=O)[nH]1)c1ccccc1 [Compound 82] showed a pIC50 greater than 6.00.
CCC(CC)n1c(=O)cc(N[C@@H](C)c2ccccc2)[nH]c1=O [Compound 83] gave a pIC50 greater than 6.00.
Compound C[C@H](Nc1cc(=O)n(C2CCN(C(=O)c3ccccc3)CC2)c(=O)[nH]1)c1ccccc1 [Compound 84] has a pIC50 greater than 6.00.
CC(C)n1c(=O)cc(N[C@@H](C)CCc2ccccc2)[nH]c1=O [Compound 85] was tested, and the pIC50 was greater than 6.00.
COC(=O)Cn1c(=O)cc(N[C@@H](C)c2ccccc2)[nH]c1=O [Compound 86] was tested, and the pIC50 was 4.82 to 6.00.
CC(C)n1c(=O)cc(N[C@@H](C)Cc2ccccc2)[nH]c1=O [Compound 90] showed a pIC50 of 4.82 to 6.00.
Compound C[C@H](Nc1cc(=O)n([C@@H](C)COCc2ccccc2)c(=O)[nH]1)c1ccccc1 [Compound 91] has a pIC50 of 4.82 to 6.00.
C[C@H](Nc1cc(=O)n([C@@H](C)CO)c(=O)[nH]1)c1ccccc1 [Compound 92] was tested, and the pIC50 was 4.82 to 6.00.
Compound CC(C)n1c(=O)cc(N[C@@H](CO)c2ccccc2)[nH]c1=O [Compound 93] has a pIC50 greater than 6.00.
In the case of C[C@H](Nc1cc(=O)n([C@H](C)C(F)(F)F)c(=O)[nH]1)c1ccccc1 [Compound 94], the pIC50 was greater than 6.00.
For C[C@H](Nc1cc(=O)n([C@@H](C)C(F)(F)F)c(=O)[nH]1)c1ccccc1 [Compound 95], the pIC50 was greater than 6.00.
Compound CC(CC(F)(F)F)n1c(=O)cc(N[C@@H](C)c2ccccc2)[nH]c1=O (some centres unmarked) [Compound 99] has a pIC50 greater than 6.00.
For C[C@H](Nc1cc(=O)n(CC(F)(F)F)c(=O)[nH]1)c1ccccc1 [Compound 100], the pIC50 was 4.82 to 6.00.

Same assay, conditions: pCa75; assay conducted using 0.5 μM myosin, IC50 values below 1.0 μM are approximate; read-out: IC50 (pCa75)
CC(C)n1c(=O)cc(N[C@@H](C)c2c(F)cccc2F)[nH]c1=O [Compound 59, (S)-6-((1-(2,6-difluorophenyl)ethyl)amino)-3-isopropylpyrimidine-2,4(1H,3H)-dione] was tested, and the pIC50 was 6.35.
For CC(C)n1c(=O)cc(N[C@H](C)c2c(F)cccc2F)[nH]c1=O [Compound 60R, (R)-6-((1-(2,6-difluorophenyl)ethyl)amino)-3-isopropylpyrimidine-2,4(1H,3H)-dione], the pIC50 was less than 4.41.
